As a reminder, the melting point is the temperature of the solid-liquid transition.

110 molecules from a melting point compilation (Tetko et al.) can be followed below.

`Cc1ccc(Cl)cc1O` yielded a melting point of 73 °C. To `NS(=O)(=O)c1cc2c(cc1Cl)NC(C1CC3C=CC1C3)NS2(=O)=O` (stereo not given) belongs 234 °C. The value for `COC(=O)c1ccnnc1` was 66 °C; that for `CC(CNC(=O)c1ccccc1)C(=O)OCC(=O)C12OC(C)(C)OC1CC1C3CCC4=CC(=O)C=CC4(C)C3(F)C(O)CC12C` (stereo not given) was 205 °C; that for `CC(=O)Nc1ccc(Cl)cc1C` was 136 to 138 °C. `CCCN(CCC)C(=O)C(CCC(=O)O)NC(=O)c1ccccc1` (stereo not given): the melting point worked out at 142 °C. To `COc1cc(OC)cc(C(=O)Cl)c1` belongs 43 °C; to `CC(CC(=O)OOC(C)(C)C)CC(C)(C)C` (stereo not given), -30 °C. The value for `O=S(=O)(CCSCCO)c1ccc(Cl)cc1` was 59 to 62 °C; that for `COC(=O)CCC(C)C1CCC2C3C=CC4CC(OC(C)=O)CCC4(C)C3CC(OC(C)=O)C12C` (stereo not given) was 86.5 to 87.5 °C. For the molecule `Nc1ncc([N+](=O)[O-])cc1Br`, the melting point was in the range of 214 to 218 °C. The value for `O=C(C=Cc1ccc(Cl)c(Cl)c1)C=Cc1ccc(Cl)c(Cl)c1` was 175 to 177 °C.

Take `CC(=O)Nc1cccc(C(C)=O)c1`: the melting point is 127 °C. In turn, `Clc1ccc2nccnc2c1` showed a melting point of 64 °C.

For `CCOC(=O)c1sc(SC(C)C)c2c1CC(C)(C)CC2=O`, the melting point lay within 87 to 89 °C. The value for `O=C(O)CCSCCCSCCC(=O)O` was 107 to 109 °C; that for `Nc1c(Cl)cc(C(F)(F)F)cc1Cl` was 36 °C. The value for `N#Cc1cc([N+](=O)[O-])cc(Br)c1N` was 188 °C.

`CCC1C(C=NC(C)(C)C)=NC(C)(C)N1O` (stereo not given) displayed a melting point of 103 to 105 °C. `Oc1ccc(C(c2ccccc2)(c2ccccc2)c2ccccc2)cc1` returned a melting point of 283 to 289 °C. To `C1CCCNCCC1` belongs 29 °C; to `NC(=O)C=Cc1ccc(C=CC(N)=O)cc1`, 320 °C. The value for `N=C(N)NCCS(=O)(=O)O` was 263 to 265 °C. The value for `Cc1nn(C)c(N2CCOCC2)c1N` was 156 to 157 °C; that for `CCOC(=O)C(C#N)=NNc1cccc([N+](=O)[O-])c1` was 155 to 156 °C. The molecule `CC(CCC(=O)O)C1CCC2C3CCC4CC(O)CCC4(C)C3CC(O)C12C` (stereo not given) showed a melting point of 177 °C. The value for `C/C(=N\N=C1C(=O)Nc2ccccc21)c1c(O)c2ccccc2n(-c2ccccc2)c1=O` was 267 °C. To `Cc1ccncc1C` belongs -11 °C; to `FC(F)C(F)(F)OCC(Cn1cncn1)c1ccc(Cl)cc1Cl` (stereo not given), 6 °C.

Molecule `N#Cc1ccccc1N=C=O` yielded a melting point of 61 to 62 °C.

Take `CS(=O)(=O)CCCN=C=S`: the melting point was found to be 47.5 °C. The value for `CC(C)(C)OC(=O)n1cc(C(=O)O)c2cc(Br)ccc21` was 206 to 209 °C.

As for `Cc1c(/N=C/c2cc(Br)cc(Br)c2O)c(=O)n(-c2ccccc2)n1C`, the melting point amounted to 228 °C.

`N#Cc1ccc(OC(F)F)cc1`: the melting point was in the range of 40 to 42 °C. To `C=CCC1(C2C=CCC2)C(=O)NC(=O)NC1=O` (stereo not given) belongs 140 °C; to `CCN(O)CC`, 10 °C. Take `COc1cc(O)c(C(=O)c2ccccc2)cc1S(=O)(=O)O`: the melting point amounted to 170 °C. Molecule `CCCCNc1cc(=O)oc2ccccc12` gave a melting point of 118 °C. `ICCCCCCCCCCI` registered a melting point of 30 °C. `CC(=O)c1cc2c(cc1Br)OCCCO2`: the melting point is 56 to 58 °C.

`CC(C)(C)OC(=O)N[C@@H](Cc1ccc(O)cc1)C(=O)O` had a melting point of 135 to 140 °C. The value for `CCC(=O)OC1CCC2(C)C(=CCC3C2CCC2(C)C(OC(=O)CC)CCC32)C1` (stereo not given) was 113 °C. The value for `COc1cc(C(=O)O)cc(Cl)n1` was 214 to 216 °C; that for `CC(=O)c1ccc(CO)cc1` was 54 °C; that for `CCCCCCCCc1ccc(NC(=O)Oc2ccc(OC)cc2)cc1` was 133 °C. To `S=c1oc2ccccc2n1CN1CCCCC1` belongs 255 °C; to `FC(F)(F)c1ccccc1CBr`, 34 to 35 °C. Turning to `O=C(/C=C/c1ccc(-c2ccc([N+](=O)[O-])cc2)o1)c1ccco1`, the melting point came to 187 °C. The value for `CC(=O)Oc1cccc(C(N)=O)c1` was 140 °C.

As for `CC(CCC(C(=O)O)C(C)C)C(=O)O` (stereo not given), the melting point was found to be 104 °C.

Consider `CCOC(=O)c1ccccc1C(=C1C=C(Br)C(=O)C(Br)=C1)c1cc(Br)c(O)c(Br)c1`, for which the melting point lay in the range of 208 to 211 °C.

In turn, `CCCc1c(O)ccc(C(C)=O)c1N` showed a melting point of 95 to 97 °C. To `O=C(CBr)c1cccc(F)c1` belongs 34 to 35 °C; to `CC=Cc1cc2c(c(=O)o1)C(=O)C(O)C(C)O2` (stereo not given), 222 °C; to `COC1=C(OC)C(C(COS(C)(=O)=O)OS(C)(=O)=O)OC1=O` (stereo not given), 77 to 79 °C.

`CNC(=O)Oc1cccc(C)c1` yielded a melting point of 77.7 °C. To `C=C(C)CCCCCCCCCCC` belongs -22 °C. The value for `c1ccc(CNCc2ccccc2)cc1` was -26 °C.

The molecule `Ic1ccc(N(c2ccc(I)cc2)c2ccc(I)cc2)cc1` registered a melting point of 167 °C. The value for `O=C(O)c1cc(F)c(F)c(Br)c1F` was 123 °C; that for `CCOC(=O)c1cn[nH]c1NC(=O)Nc1cccc(Cl)c1` was 257 to 259 °C. The value for `CCOC(=O)C1=C(C)OC(N)=C(C#N)C1c1ccccc1` (stereo not given) was 189 to 190 °C. The value for `CC1(C)C=C(C(=O)ON2C(=O)CCC2=O)C(C)(C)N1O` was 175 to 178 °C; that for `Cc1nc(-c2ccc(C(F)(F)F)cc2)sc1C=O` was 131 to 133 °C. Molecule `O=C(O)c1cnc(NCc2ccccc2)s1` yielded a melting point of 163 to 164 °C. To `O=C(Nc1ccccc1)OCC1(COC(=O)Nc2ccccc2)CCCC1` belongs 152 °C; to `COc1cc(Cl)c(Cl)cc1Cl`, 77.5 °C; to `CC(C)(C)OC(=O)n1cc(C(=O)O)c2c(Br)cccc21`, 149 to 150 °C. The value for `CCCCN(CCCC)c1ccccc1` was -32.2 °C.

Consider `CC12CCC(C(=O)/C(=N\Nc3ccccc3)C1=O)C2(C)C` (stereo not given), for which the melting point came to 117 °C. To `ClC(Cl)c1ccc(C(Cl)Cl)cc1` belongs 92 to 93 °C; to `CSc1nnc(S)s1`, 136 °C. The value for `COc1cccc2cc(C(=O)Cc3c(C)cc(C)cc3C)oc12` was 121 to 122 °C. To `O=C1C=C(NCCCCc2ccccc2)C(=O)c2ccccc21` belongs 137 °C; to `O=C(c1ccco1)c1noc(-c2ccc(Br)cc2)c1S(=O)(=O)c1ccccc1`, 133 °C; to `CC(C)CS`, -145 °C. Turning to `CC1(C)OC2(C)CCC1C(=O)OC2(c1ccccc1)c1ccccc1` (stereo not given), the melting point worked out at 134 °C. The value for `CC12CCC3C(CCC45OC4C(=O)C=CC35O)C1CCC2=O` (stereo not given) was 201 to 203 °C; that for `CCOC(=O)c1ccc(-c2ccccc2)cc1` was 49 °C; that for `O=C(O)c1ccccc1O` was 157 °C. The value for `COC(=O)C=Cc1ccc(OC)c(OC2CCCC2)c1` was 54 to 57 °C. The value for `CCCCC(=O)CCCC` was -3.8 °C; that for `OCc1ccc2occc2c1` was 35 to 36 °C. Turning to `Cn1nc(N)c2c(=O)c(C(=O)O)c[nH]c21`, the melting point lay within 223 to 225 °C. The value for `CN(C)P(=O)(OP(=O)(N(C)C)N(C)C)N(C)C` was 17 °C. On to `Cc1cc([N+](=O)[O-])ccc1O`, for which the melting point amounted to 96 °C.

The molecule `CCS(=O)(=O)c1nc2ccccn2c1S(=O)(=O)NC(=O)Nc1nc(OC)cc(OC)n1` displayed a melting point of 202 °C. Molecule `CNC(=S)C#N` displayed a melting point of 37 to 46 °C. Molecule `Cn1nc(CO)cc1-c1cccs1` came in with a melting point of 56 to 60 °C.

Consider `NC(=O)C[C@H](NC(=O)OCc1ccccc1)C(=O)O`, for which the melting point lay within 160 to 165 °C.

Consider `O=C(O)COCCNC(=O)C12CC3CC(CC(C3)C1)C2`, for which the melting point lay within 120 to 124 °C. The value for `CC12C=CC(=O)C=C1CCC1C3CC(O)C(O)(C(=O)CO)C3(C)CC(O)C12F` (stereo not given) was 269 °C; that for `COc1cc(/C=C/c2cc(C)cc(OC)c2O)ccc1O` was 124 °C. To `FC(Cl)C(Cl)(Cl)Cl` (stereo not given) belongs -95.3 °C; to `ClC(=C(Cl)c1ccccc1)c1ccccc1`, 144 °C. The value for `COc1ccc(Br)c2c1C(=NNc1ccc([N+](=O)[O-])cc1[N+](=O)[O-])C2` was 288 to 289 °C; that for `CCC1(O)CCC2(C)C(CCC3C2CCC2(C)C3CCC23OCCO3)C1` (stereo not given) was 127 °C. `CC(=O)c1ccc(C#N)s1` showed a melting point of 78 °C.

On to `Cc1ccc(C)c(C(O)C(=O)O)c1` (stereo not given), for which the melting point lay within 115 to 118 °C. The value for `CC(=O)c1cccc2ccccc12` was 34 °C; that for `Oc1ccc(C=Nc2ccccc2N=Cc2ccc(O)cc2O)c(O)c1` was 163 to 165 °C. To `Nc1cccc2c1CCCC2` belongs 38 °C; to `Cc1cc(O)c(Cl)c(C)c1Cl`, 95.5 °C. The value for `CC(=O)OC1OC(COC(=O)c2ccccc2)C(OC(=O)c2ccccc2)C1OC(=O)c1ccccc1` (stereo not given) was 128 to 130 °C; that for `CCOC(=O)c1cnc2c(c(C)nn2C)c1Oc1ccc(OC)cc1` was 92 to 93.5 °C. `CCCC(=O)c1ccccc1O`: the melting point is 10 °C. The value for `Clc1n[nH]c2ccccc12` was 149 °C. The value for `Oc1ccc(C(O)C2CCCCN2)cc1O` (stereo not given) was 204 °C. Consider `O=C1CCC(=O)CC1`, for which the melting point was determined as 78 °C.

For the molecule `O=Cc1ccc(-c2ccc(-c3cccs3)s2)s1`, the melting point fell in the range of 133 to 135 °C.
